Experimental findings from patent publication US11439646B2, “Anti-proliferative agents for treating PAH” (Pfizer Inc., priority 2016, dated 2022) are described below.

In this assay the test system is phospho-Rb (Ser807/811). Nature of the assay: In-cell western analysis of Rb phosphorylation in human PASMCs. As to conditions: for IC50: PASMC. It counts as cell-based. The method, then: In-cell western analysis. Primary PASMCs from normal human subjects were cultured and serum-starved as described above. Cells were first pre-incubated with different concentrations of palbociclib for 60 minutes, and then either 5% FBS or 10% FBS or 30 ng/ml PDGF-BB was added to stimulate cell proliferation and Rb phosphorylation. The effect of Palbociclib on Rb phosphorylation was evaluated 24 h later, using in-cell western assay according to the manufacturer's instructions (Li-Cor Biosciences, Lincoln, Nebr., USA). Phosphorylated Rb was measured using a rabbit monoclonal antibody anti-phospho-Rb (Ser807/811) (Cell Signaling Technology, Inc., Danvers, Mass., USA), followed by detection with IRDye 800CW infrared fluorescent dye-labeled goat anti-rabbit secondary antibody. Actin levels were measured using mouse anti-actin monoclonal antibodies (pan Ab-5) (Fisher Scientific Pittsburgh, Pa., USA; Sigma Aldrich, St. Louis, Mo., USA), and followed by detection with IRDye 680RD-labeled goat anti-mouse secondary antibody. See FIG. 2a where 5% FBS was used, FIG. 2b where PDGF-BB was used, and FIG. 2c where 10% FBS was used.

One may read the IC50 as the midpoint of a concentration-inhibition curve.

Read-outs that look alike come from different tables or passages of the source.

With `CC(=O)c1c(C)c2cnc(Nc3ccc(N4CCNCC4)cn3)nc2n(C2CCCC2)c1=O` [Palbociclib, 6-acetyl-8-cyclopentyl-5-methyl-2-{[5-(piperazin-1-yl)pyridin-2yl]amino}pyrido[2,3-d]pyrimidin-7(8H)-one], the IC50 (Homo sapiens, 10% FBS, N = 6, FIG. 2c, read-out: Average IC50 (nM), inhibition of phosphorylation of Rb in hPASMCs) turned out to be 64.2 nM; the half-maximal inhibitory concentration (IC50) (human PASMCs, 5% FBS, FIG. 2a, read-out: IC50, serum-induced Rb phosphorylation) is 14.9 nM; the IC50 (human PASMCs, PDGF-BB, FIG. 2b, read-out: IC50, PDGF-BB induced Rb phosphorylation) stood at 5.2 nM. Under “human primary PASMCs, 5% FBS or PDGF-BB”, the “effect on total Rb levels” value was “little effect”.
